What was measured:
[1] = tested on: MSN-enriched primary neurons and PBMCs; assay: LDH release assay; assay type: cell-based, mouse
Method: MTT and LDH release assays were conducted in MSN-enriched primary neurons and in PBMCs[64]. Cellular cytotoxicity was conducted in HepG2 cells using high content screening (HCS) protocols. Briefly, HepG2 cells were plated on 384-well tissue culture treated black walled clear bottomed polystyrene plates and treated with varying concentrations of Mal-gluc or DHCA. The cells were loaded with the relevant dye/antibody for each cell-health marker following incubation, including cell count, markers for nuclear size, DNA structure, cell membrane permeability, mitochondrial mass, mitochondrial membrane potential and cytochrome C release. The plates were then scanned using an automated fluorescent cellular imager ArrayScanr (Thermo Scientific Cellomics).

[2] = Plasma stability, mouse plasma; assay type: in vitro ADME; conditions: 37 °C
Method: Compound stability in mouse and human plasma and in mouse brain homogenate were conducted, [45]. Specifically, Mal-gluc or DHCA was incubated in duplicate with plasma at 37 °C and samples were taken at various time points and mixed with three volumes of ice-cold Stop Solution (methanol containing propranolol, diclofenac, or other internal standard). Samples were centrifuged to remove precipitated protein, and the supernatants were analyzed by LC/MS/MS to quantitate for remaining test compound. Data are converted to percentage remaining by dividing by the time zero concentration value. Data are fit to a first-order decay model to determine half-life. Plasma protein binding were conducted using both mouse and human plasma.

[3] = In vivo safety: plasma ALP, AST, ALT, BUN; design: species or system mouse; conditions: 2 weeks, all doses tested
Method: We then initiated dose response and safety studies in mice to determine testing dosages and safety of DHCA and Mal-gluc. C57BL/6 mice were treated with either DHCA (doses ranging from 50 µg to 50 mg/kg-BW/day) or Mal-gluc (doses ranging from 50 ng to 5 mg/kg-BW/day) for 2 weeks to simulate long-term administration. Mice treated with DHCA were challenged with intraperitoneal (i.p.) injection of 0.4 mg/kg-BW LPS and plasma levels of IL-6 were measured 6 h post injection. […] Following common discovery-stage practices, we measured the plasma levels of alkaline phosphatase (ALP), aspartate aminotransferase (AST), and alanine aminotransferase (ALT) for liver function and blood urea nitrogen (BUN) for renal function.
Male C57BL/6 J mice (8-week-old) were placed on a polyphenol-free AIN-93M diet and treated with various doses of DHCA (vehicle, 50 µg, 500 µg, 5 mg, and 50 mg/kg-BW/day), delivered through their drinking water for two weeks. Animals were then sacrificed and plasma was collected for routine biochemistry panel analysis including ALP, ALT, and AST for liver function and blood urea nitrogen (BUN) content for kidney function. A separate group of mice was similarly treated and challenged with an i.p. injection of 0.4 mg/kg body weight LPS and plasma was collected 6 h post injection for IL-6 analysis. […]

[4] = tested on: C57BL/6 mice subjected to RSDS; assay: RSDS, prophylactic treatment; assay type: in vivo, mouse; conditions: 5 mg/kg-BW/day DHCA or 500 ng/kg-BW/day Mal-gluc alone prior to RSDS
Method: To test the efficacy of BDPP in promoting resilience in stress-mediated depression, we treated C57BL/6 male mice with BDPP or vehicle for 2 weeks prior to and throughout RSDS and then performed social avoidance/interaction (SI) testing (Fig. 1a).
Based on the dose–response studies, we chose 5 mg/kg-BW/day DHCA and 500 ng/kg-BW/day Mal-gluc for the preclinical studies. We tested the prophylactic effect by treating mice with a mixture of DHCA/Mal-gluc for 2 weeks prior to and throughout RSDS (Fig. 3c). […] Following SI testing, mice were subjected to a sucrose preference test to evaluate the treatment effect on stress-induced anhedonia.
Male C57BL/6 mice (8-week-old) were randomly grouped into two groups: one group received regular drinking water; the other group was treated with BDPP composed of GSPE, RESV and CGJ, delivered through their drinking water, starting 2 weeks prior to RSDS and throughout RSDS and SI testing. The calculated daily intake of GSPE was 200 mg/kg body weight (BW), RESV was 300 mg/kg BW and CGJ was 1 ml/day.
To facilitate the follow-up sucrose preference test, the delivery of the drinking solution was through two 50-ml tubes with sipper top for each cage, starting from the day of initiation of treatment and the two tubes were regularly switched during the treatment. In parallel control studies, mice received similar treatment but were not subjected to RSDS. For therapeutic studies, susceptible mice (SI <0.8) were identified and randomly grouped into two groups either treated with vehicle or DHCA/Mal-gluc for 2 weeks. Mice were subjected to SI, sucrose preference, and splash testing. For testing the therapeutic efficacy of Imipramine, susceptible mice were treated with Imipramine (20 mg/kg-BW/day, i.p.) for 34 days. On day 35, mice were tested for SI 15–20 min after the last injection. […]
All social interaction (SI) tests were performed under red-light conditions. […] Their movements were automatically monitored and recorded (Ethovision 3.0; Noldus Information Technology) for 2.5 min in the absence (target absent phase) of a novel CD-1 mouse and followed by 2.5 min exploratory behavior in the presence of a caged CD-1 mouse (target present phase). SI behavior was then calculated as a ratio of the time spent in the interaction zone with the target present divided by the time spent in the interaction zone with the target absent. […]
Mice were given access to a two-bottle choice of water or 1% sucrose solution and the consumption of each solution was recorded once every 24 h for 48 or 72 h. […] Sucrose preference was calculated as a percentage of sucrose consumption over total liquid consumption. […]

SMILES | LDH assay, % of vehicle control [1] | Plasma stability, Half-life (mouse plasma) [2] | plasma ALP, AST, ALT (liver function) and BUN (renal function) [3] | anhedonia (sucrose preference), single compound treatment [4] | resilience (SI), single compound treatment [4] | half-life ([2]; mouse, plasma)
COc1cc(-c2[o+]c3cc(O)cc(O)c3cc2O[C@@H]2O[C@H](CO)[C@@H](O)[C@H](O)[C@H]2O)cc(OC)c1O [Mal-gluc] | 100% | 201 min | neither phytochemical induced significant changes in any of the indexes | neither treatment significantly promoted resilience (Supplementary Fig. 7a) or alleviate anhedonia | neither treatment significantly promoted resilience | 
O=C(O)CCc1ccc(O)c(O)c1 [DHCA, 3(3,4-dihydroxy-phenyl) propionic acid] | 100% |  | neither phytochemical induced significant changes in any of the indexes | neither treatment significantly promoted resilience (Supplementary Fig. 7a) or alleviate anhedonia | neither treatment significantly promoted resilience | 44.1 min

Source: PMC5797143, “Epigenetic modulation of inflammation and synaptic plasticity promotes resilience against stress in mice” (Nature Communications, 2018)
